{"source": "patent US11096390B2", "about": "“Method of controlling weeds in a cultivation area of field corn” (SUMITOMO CHEMICAL COMPANY, LIMITED, priority 2019, dated 2021)", "key": {"sweet corn": {"tested_on": "sweet corn", "experiment": "Pot test, soil spray after sowing: crop injury on sweet corn", "format": "in vivo, Zea mays var. saccharata", "source_text": "(§1) The evaluation of the herbicidal effect and crop injury is classified into 0 to 100, where the numeral “0” indicates no or little difference in the state of germination or growth of weeds or corn under test at the time of examination as comparison with untreated weeds or corn, respectively and the numeral “100” indicates the complete death of weeds or corn under test or the complete inhibition of their germination or growth of weeds or corn under test.\n(§2) Three varieties of field corn, two varieties of popcorn, two varieties of sweet corn, two varieties of waxy corn, palmer amaranth, kochia and large crabgrass were sown to a pot filled with a soil. On the next day, a trifludimoxazin spray liquid (prepared by diluting an emuslfiable concentrate of trifludimoxazin with water) was uniformly sprayed onto the pot at the amount of 200 L per hectare so that the application rate of trifludimoxazin might be 50 g per hectare. 12 days after treatment, herbicidal effects on weeds and injury on corns were investigated. As a result, the herbicidal effect on each of the three weeds was 100.\nas §2, with “Four” for “Three”, “sweet” for “sweet corn, two varieties of waxy”, “25” for “50”, “13” for “12”"}, "kochia": {"tested_on": "kochia", "experiment": "Pot test, soil spray after sowing: herbicidal effect on kochia", "format": "in vivo, Kochia scoparia", "source_text": "as §1, §2\n(§3) Four varieties of field corn, two varieties of popcorn, two varieties of sweet corn, palmer amaranth, kochia and large crabgrass were sown to a pot filled with a soil. […]"}, "popcorn": {"tested_on": "popcorn", "experiment": "Pot test, soil spray after sowing: crop injury on popcorn", "format": "in vivo, Zea mays var. everta", "source_text": "as §1, §2\nas §2, with “Four” for “Three”, “sweet” for “sweet corn, two varieties of waxy”, “25” for “50”, “13” for “12”"}, "[1]": {"tested_on": "field corn, popcorn, sweet corn, and waxy corn", "experiment": "Example 2 pot test, spray the day before sowing corns: injuries on various corns", "format": "in vivo, Zea mays", "details": "25 or 50 g per hectare; applied the day before sowing corns; 21 days after sowing corns", "source_text": "as §1\n(§4) A pot is filled with a soil, and then Palmer amaranth, waterhemp, kochia, common ragweed and marestail are sown thereto. On the same day, trifludimoxazin spray liquid (prepared by diluting trifludimoxazin formulation (an aqueous suspension concentrate containing 500 g/L of trifludimoxazin) with water) is uniformly applied onto the pot using sprayer at the amount of 200 L per hectare so that the application rate of trifludimoxazin may be 25 or 50 g per hectare. On the next day, field corn, popcorn, sweet corn, and waxy corn are sown. 21 days after sowing corns, herbicidal effects and injuries on various corns are investigated."}, "large crabgrass": {"tested_on": "large crabgrass", "experiment": "Pot test, soil spray after sowing: herbicidal effect on large crabgrass", "format": "in vivo, Digitaria sanguinalis", "source_text": "as §1, §2, §3"}, "palmer amaranth": {"tested_on": "palmer amaranth", "experiment": "Pot test, soil spray after sowing: herbicidal effect on palmer amaranth", "format": "in vivo, Amaranthus palmeri", "source_text": "as §1, §2, §3"}, "[2]": {"tested_on": "palmer amaranth, waterhemp, kochia, common ragweed and marestail", "experiment": "Example 1 pot test, spray two days after sowing: herbicidal effects on weeds", "format": "in vivo", "details": "25 or 50 g per hectare; applied two days after sowing; 21 days after the treatment", "source_text": "as §1\nas §4, with “field corn, popcorn, sweet corn, waxy corn, palmer” for “Palmer”, “Two days later,” for “On the same day,”, “hectare.” for “hectare. On the next day, field corn, popcorn, sweet corn, and waxy corn are sown.”, “the treatment,” for “sowing corns,”"}, "[3]": {"tested_on": "field corn, popcorn, sweet corn, waxy corn", "experiment": "Example 1 pot test, spray two days after sowing: injuries on various corns", "format": "in vivo, Zea mays", "details": "25 or 50 g per hectare; applied two days after sowing; 21 days after the treatment", "source_text": "as §1\nas §4, with “field corn, popcorn, sweet corn, waxy corn, palmer” for “Palmer”, “Two days later,” for “On the same day,”, “hectare.” for “hectare. On the next day, field corn, popcorn, sweet corn, and waxy corn are sown.”, “the treatment,” for “sowing corns,”"}, "[4]": {"tested_on": "palmer amaranth, waterhemp, kochia, common ragweed and marestail", "experiment": "Example 2 pot test, spray the day before sowing corns: herbicidal effects on weeds", "format": "in vivo", "details": "25 or 50 g per hectare; applied on day of weed sowing, corns sown next day; 21 days after sowing corns", "source_text": "as §1, §4"}, "waxy corn": {"tested_on": "waxy corn", "experiment": "Pot test, soil spray after sowing: crop injury on waxy corn", "format": "in vivo, Zea mays var. ceratina", "details": "50 g/ha, 12 days after treatment", "source_text": "as §1, §2"}, "field corn": {"tested_on": "field corn", "experiment": "Pot test, soil spray after sowing: crop injury on field corn", "format": "in vivo, Zea mays var. indentata and/or Zea mays var. indurata", "source_text": "as §1, §2\nas §2, with “Four” for “Three”, “sweet” for “sweet corn, two varieties of waxy”, “25” for “50”, “13” for “12”"}, "[5]": {"details": "25 g per hectare, 13 days after treatment"}, "[6]": {"details": "50 g per hectare, 12 days after treatment"}}, "data": [{"smiles": "C#CCN1C(=O)C(F)(F)Oc2cc(F)c(-n3c(=O)n(C)c(=S)n(C)c3=O)cc21", "note": "[trifludimoxazin]", "values": [{"measurement": "Injury score on corn (0 to 100)", "setting": "sweet corn; Sweet corn Ohisama, 25 g/ha, 13 days after treatment", "value": 20}, {"measurement": "Injury score on corn (0 to 100)", "setting": "sweet corn; Sweet corn Ohisama, 50 g/ha, 12 days after treatment", "value": 40}, {"measurement": "Injury score on corn (0 to 100)", "setting": "sweet corn; Sweet corn Rancher 82, 25 g/ha, 13 days after treatment", "value": 30}, {"measurement": "Injury score on corn (0 to 100)", "setting": "sweet corn; Sweet corn Rancher 82, 50 g/ha, 12 days after treatment", "value": 30}, {"measurement": "herbicidal effect (0 to 100)", "setting": "kochia; [5]", "value": 100}, {"measurement": "herbicidal effect (0 to 100)", "setting": "kochia; [6]", "value": 100}, {"measurement": "Injury score on corn (0 to 100)", "setting": "popcorn; Popcorn Maru-pop, 25 g/ha, 13 days after treatment", "value": 20}, {"measurement": "Injury score on corn (0 to 100)", "setting": "popcorn; Popcorn Maru-pop, 50 g/ha, 12 days after treatment", "value": 50}, {"measurement": "Injury score on corn (0 to 100)", "setting": "popcorn; Popcorn Yuki-pop, 25 g/ha, 13 days after treatment", "value": 20}, {"measurement": "Injury score on corn (0 to 100)", "setting": "popcorn; Popcorn Yuki-pop, 50 g/ha, 12 days after treatment", "value": 40}, {"measurement": "injury on field corn compared with popcorn, sweet corn and waxy corn", "setting": "[1]", "value": "less than those on popcorn, sweet corn and waxy corn"}, {"measurement": "herbicidal effect (0 to 100)", "setting": "large crabgrass; [5]", "value": 100}, {"measurement": "herbicidal effect (0 to 100)", "setting": "large crabgrass; [6]", "value": 100}, {"measurement": "herbicidal effect (0 to 100)", "setting": "palmer amaranth; [5]", "value": 100}, {"measurement": "herbicidal effect (0 to 100)", "setting": "palmer amaranth; [6]", "value": 100}, {"measurement": "herbicidal effects on all weeds", "setting": "[2]", "value": "High herbicidal effects"}, {"measurement": "injury on field corn compared with popcorn, sweet corn and waxy corn", "setting": "[3]", "value": "less than those on popcorn, sweet corn and waxy corn"}, {"measurement": "herbicidal effects on all weeds", "setting": "[4]", "value": "High herbicidal effects"}, {"measurement": "Injury score on corn (0 to 100)", "setting": "waxy corn; Waxy corn Ki-mochi", "value": 30}, {"measurement": "Injury score on corn (0 to 100)", "setting": "waxy corn; Waxy corn Shiro-mochi", "value": 40}, {"measurement": "Injury score on corn (0 to 100)", "setting": "field corn; Field corn DKC5632, 25 g/ha, 13 days after treatment", "value": 0}, {"measurement": "Injury score on corn (0 to 100)", "setting": "field corn; Field corn DKC5632, 50 g/ha, 12 days after treatment", "value": 10}, {"measurement": "Injury score on corn (0 to 100)", "setting": "field corn; Field corn Koshu, 25 g/ha, 13 days after treatment", "value": 0}, {"measurement": "Injury score on corn (0 to 100)", "setting": "field corn; Field corn Koshu, 50 g/ha, 12 days after treatment", "value": 5}, {"measurement": "Injury score on corn (0 to 100)", "setting": "field corn; Field corn MAS40F, 25 g/ha, 13 days after treatment", "value": 5}, {"measurement": "Injury score on corn (0 to 100)", "setting": "field corn; Field corn Pioneer 2088, 25 g/ha, 13 days after treatment", "value": 0}, {"measurement": "Injury score on corn (0 to 100)", "setting": "field corn; Field corn Pioneer 2088, 50 g/ha, 12 days after treatment", "value": 5}]}]}
